The test system of experiment [1] is P. aeruginosa strain PAO1-LAC, ATCC 47085. As to conditions: PAO1, 24 h. The text has this: (§1) The bacterial strains; Fusobacterium nucleatum ATCC 25586, Streptococcus mutans Ingbritt, Staphylococcus aureus (MSSA) ATCC 29213; Staphylococcus aureus (MRSA) ATCC 43300; Enterococcus faecalis ATCC 29212; Enterobacter aerogenes ATCC 13048; Pseudomonas aeruginosa strain PAO1-LAC, ATCC 47085; Klebsiella pneumoniae ATCC 13883; Acinetobacter baumannii strain 2208, ATCC 19606; Escherichia coli ATCC 25922 lyophilised or glycerol stocks were obtained from the culture collection of the Oral Health Cooperative Research Centre, The Melbourne Dental School, University of Melbourne, Australia. These strains were selected for this study as they are widely used in antimicrobial studies and are considered to be important pathogens and major targets for antibiotic resistant studies. Bacteria were grown aerobically and maintained by passage at ambient temperature (E. coli, K. pneumoniae, A. baumannii and S. aureus strains) or at 37°C (P. aeruginosa, E. faecalis and E. aerogenes) on horse blood agar (10% v/v defibrinated horse blood, 4.4% w/v Oxoid Blood Agar Base No. 2). S. mutans and F. nucleatum were grown anaerobically (MK3 anaerobic workstation, Don Whitley Scientific Limited, England) and maintained by passage at 37°C on Todd Hewitt agar (3.6% w/v Oxoid Todd-Hewitt Broth, 1.5% w/v sucrose, 1.5% w/v BactoTM Agar, 0.8% w/v Oxoid Yeast Extract) or horse blood agar, respectively. For the antimicrobial peptide assays a 20 mL starter culture was produced by taking single colonies from blood or Todd Hewitt agar plates, respectively, to inoculate either: Luria Broth (LB; 1% w/v BactoTM Tryptone, 1% w/v NaCl, 0.5% w/v Oxoid Yeast Extract, pH 7.5, Thermo Scientific Pty, Ltd, Sydney, Australia) for bacteria; E. coli, K. pneumoniae, P. aeruginosa, A. baumannii, E. faecalis, E. aerogenes and S. aureus which were grown aerobically at 37°C, or Todd Hewitt broth (3.6% w/v Oxoid Todd-Hewitt Broth, 1.5% w/v sucrose, 0.8% w/v Oxoid Yeast 9 Extract) for S. mutans, or Brain Heart Infusion broth (BHI; 3.7% w/v Oxoid BHI, 0.05% w/v L-cysteine) for F. nucleatum which were both grown anaerobically at 37°C. After overnight incubation, 0.5–2.0 mL of the starter culture was used to inoculate the appropriate fresh broth (200 mL) and growth monitored at 650 nm using a spectrophotometer (model 275E; Perkin-Elmer, Sydney, Australia) with culture purity checked by microscopic examination and culture. Bacteria were harvested during late exponential growth phase and viability and bacteria/mL determined using a BacLight viability kit (Invitrogen, Sydney, Australia) and a Quanta SC-MPL flow cytometer (Beckman coulter Pty, Ltd, Sydney, Australia).
(§2) Antibacterial assays were undertaken to determinate the minimum inhibitory concentration (MIC), minimum bactericidal concentration (MBC) and minimum membrane disruptive concentration (MDC) of each of the antimicrobial peptides (AMP) and AMP analogues (S1 Table). For each bacterim a stock solution (2.5 × 10^6 cells/mL) in the respective media was made and an aliquot incubated with AMPs within 15 minutes from viable cell count and stock preparation. All AMPs were dissolved in DMSO and a 500 μM stock solution prepared by adding the respective media and serial dilutions (250–0.244 μM) of the AMP in media (100 μL/well) made just prior addition of bacteria. […] One hundred microliter aliquots of the bacterial stock solution (2.5 × 10^5 cells/well) were added to the AMP serial dilutions and incubated at 37°C for 90 min. Assay preparation and incubations were conducted in aerobic or anaerobic conditions dependent on the bacteria. Bacteria were also incubated in the absence of AMP to serve as a growth control for the assay. After the 90 minute incubation period the antimicrobial activity (MIC, MBC and MDC) was determined as follows;
(§3) For MIC the CLSI broth microdilution assay was followed as we have previously described.

Experiment [2] concerns S. aureus (MSSA) ATCC 29213. As to conditions: ATCC 29213, 24 h.
Source text: as §1, §2, §3

Experiment [3] deals with E. aerogenes ATCC 13048. As to conditions: ATCC 13048, 24 h.
Source text: as §1, §2, §3

The test system of experiment [4] is A. baumannii strain 2208, ATCC 19606. As to conditions: ATCC 19606, 24 h.
Source text: as §1, §2, §3

For experiment [5], the system named is E. coli ATCC 25922. As to conditions: ATCC 25922, 24 h.
Source text: as §1, §2, §3

Experiment [6] relates to S. mutans Ingbritt. As to conditions: Ingbritt, 24 h.
Source text: as §1, §2, §3

The test system of experiment [7] is K. pneumoniae ATCC 13883. As to conditions: ATCC 13883, 24 h.
Source text: as §1, §2, §3

The subject of experiment [8] is S. aureus (MRSA) ATCC 43300. As to conditions: ATCC 43300, 24 h.
Source text: as §1, §2, §3

Experiment [9] concerns E. faecalis ATCC 29212. As to conditions: ATCC 29212, 24 h.
Source text: as §1, §2, §3

Experiment [10] relates to F. nucleatum ATCC 25586. As to conditions: ATCC 25586, 24 h.
Source text: as §1, §2, §3

Experiment [11] relates to P. aeruginosa strain PAO1-LAC, ATCC 47085. As to conditions: PAO1.
Source text: as §1, §2
(§4) For determination of MBC, the CLSI protocol was followed, with the modifications being that due to the rapid action of the AMPs the assay incubation time was shortened from 16–20 hours to 90 minutes.

In experiment [12] the test system is S. aureus (MSSA) ATCC 29213. As to conditions: ATCC 29213.
Source text: as §1, §2, §4

Experiment [13] concerns E. aerogenes ATCC 13048. As to conditions: ATCC 13048.
Source text: as §1, §2, §4

In experiment [14] the test system is A. baumannii strain 2208, ATCC 19606. As to conditions: ATCC 19606.
Source text: as §1, §2, §4

The test system of experiment [15] is E. coli ATCC 25922. As to conditions: ATCC 25922.
Source text: as §1, §2, §4

Experiment [16] has as its system S. mutans Ingbritt. As to conditions: Ingbritt.
Source text: as §1, §2, §4

Experiment [17] deals with K. pneumoniae ATCC 13883. As to conditions: ATCC 13883.
Source text: as §1, §2, §4

Experiment [18] relates to S. aureus (MRSA) ATCC 43300. As to conditions: ATCC 43300.
Source text: as §1, §2, §4

The test system of experiment [19] is E. faecalis ATCC 29212. As to conditions: ATCC 29212.
Source text: as §1, §2, §4

In experiment [20] the test system is F. nucleatum ATCC 25586. As to conditions: ATCC 25586.
Source text: as §1, §2, §4

The source of these data is paper PMC4795541, “A Rapid and Quantitative Flow Cytometry Method for the Analysis of Membrane Disruptive Antimicrobial Activity” (PLoS ONE, 2016).

The MIC is the lowest concentration found to suppress growth. Higher therefore signals weaker potency. One may read the MBC as the smallest concentration meeting the test's criterion for killing. The low end stands for greater bactericidal potency, the high end for weaker bactericidal potency.

Marks after values point to notes of the source that are not given here. Where no end group is shown, it is not given here.

Consider KNLRRIIRKIIHIIKKYG [Ovispirin], for which the MIC in [1] is 90.6 ± 7.5 µM; in experiment [2], 138.5 ± 24.5 µM; against E. aerogenes ATCC 13048 [3], 45.9±13.8^e μM; in experiment [4], 2.6 ± 1.1 µM; against E. coli ATCC 25922 [5], 9.6 ± 3.9 µM; with S. mutans Ingbritt [6], 16.5 ± 1.7 µM. Moreover, the MIC against K. pneumoniae ATCC 13883 [7] was 7.7±0.1^e μM; in experiment [8], greater than 250 µM; in the experiment with E. faecalis ATCC 29212 [9] it was 78.8 ± 40.7 µM; in the experiment on F. nucleatum ATCC 25586 [10] it was 4.2 ± 2.9 µM. Also, the MBC in [11] turned out to be 95.9 ± 9.8 µM; in experiment [12] it was 139.7 ± 25.8 µM; in the experiment with E. aerogenes ATCC 13048 [13], 135.2 ± 26.3 µM; in [14], 2.0 ± 1.0 µM; in the experiment on E. coli ATCC 25922 [15], 8.5 ± 0.7 µM; against S. mutans Ingbritt [16], 11.3 ± 5.3 µM. For the same sequence, the MBC in the experiment on K. pneumoniae ATCC 13883 [17] was 21.7 ± 3.7 µM; in experiment [18] it was greater than 250 µM; in the experiment on E. faecalis ATCC 29212 [19] it was 72.4 ± 13.7 µM; against F. nucleatum ATCC 25586 [20] it was 4.7 ± 3.5 µM.
